Results from patent US20240197695A1, “COMPOUND FOR PREVENTION OR TREATMENT OF KIDNEY DISEASE” (ONCOCROSS CO.,LTD, priority 2021, published 2024).
Read-outs that look alike come from different tables or passages of the source. Marks after values point to notes of the source that are not given here.

Columns and labels:
Format in all cases: in vivo, mice (C57BL/6)
[1] = test system: diabetic nephrosis animal models; details: for CRE, Mean / GLU, Mean / T-CHO, Mean: after observation period, fasted
Method: (§1) STZ (Sigma-aldrich, S0130, 40 mg/kg b.w., in 0.1 M citrate buffer pH 4.5) was intraperitoneally administered to 9-week-old male mice (C57BL/6) once/1 day for 5 days to perform a first disease induction. After 7 weeks of the first induction, a second induction was performed using the same method as the first induction. For 5 days of an STZ administration period for the first induction, 10% sucrose was administered as drinking water. In addition, after 14 days of the second administration, blood glucose levels were confirmed to confirm the induction rate, and the induced animals were separated into groups. Experimental substances (R)-4-{(R)-1-[7-(3,4,5-trimethoxy-phenyl)-[1,6] naphthyridin-5-yloxy]-ethyl}pyrrolidin-2-one (BI-1002494) and cromolyn (OC-101) were administered orally into the stomach at 10 mL/kg using an administration syringe (sonde) before 16:00 daily for 12 weeks at a frequency of 7 days/week at doses shown in Table 1 below, and dexamethasone was orally administered as a positive control substance.
(§2) After the observation period for mice of each group in Example 1 was terminated, all surviving animals were fasted in the same manner as when measuring blood glucose levels, and then anesthetized by inhaling isoflurane, and blood was collected from the abdominal vena cava through laparotomy. After the blood collection was completed, the veins and arteries were cut under anesthesia and exsanguinated. The collected blood was left at room temperature for 30 minutes or more and then centrifuged at 3,000 rpm for 20 minutes. Thereafter, glucose, Blood urea nitrogen (BUN), and creatinine were analyzed using an automated blood biochemistry analyzer (Hitachi 3100, Hitachi Co. Ltd., Japan). Indoxyl sulfate (a substance that was mainly produced in the intestines to cause renal injury, and a substance that caused end-stage renal failure by advancing renal function damage in patients with renal failure during hemodialysis) was analyzed using LC MS/MS. In addition, blood insulin was analyzed according to a method represented by a commercial Mouse Insulin ELISA KIT (#AKRIN-011T, Sibayagi Co. Ltd., Japan).

[2] = Body weights of mice in diabetic nephrosis model
Method: as §1

[3] = test system: diabetic nephrosis animal models; assay: Blood indoxyl sulfate by LC MS/MS; details: after observation period, fasted
Method: as §1, §2

[4] = Drinking water intake of mice in diabetic nephrosis model; parameters: unit not given here
Method: as §1

[5] = Feed intake of mice in diabetic nephrosis model; parameters: Feed intake, Mean: unit not given here
Method: as §1

[6] = test system: diabetic nephrosis animal models; assay: Changes in blood glucose levels (tail vein, blood glucose level meter)
Method: as §1
Before disease induction, excluding week 9 of administration of experimental substances to mice in each group of Example 1 above, after 2 weeks after the first induction (based on a first administration date), and after 6 weeks and 2 weeks of the second induction (based on the first administration date), blood was collected from the tail vein and blood glucose levels were measured using a blood glucose level meter (Accu-Check, Roche), and fasting was performed for 4 hours from 9:30 a.m. to 1:30.

[7] = test system: diabetic nephrosis animal models; assay: Histopathological change (H&E) in liver, kidney, pancreas; details: count in group of 10 animals
Method: as §1
At the end of the observation period, the mice in each group of Example 1 were confirmed to be dead, and the liver, kidney, and pancreas were extracted and fixed with 10% neutral buffered formalin (NBF) in at least 20 times the tissue volume. The fixed tissue was sectioned to a thickness of approximately 4 mm and then produced into a paraffin block through general tissue processing and embedding processes. Thereafter, the tissue was sectioned to a thickness of 4 μm using a rotary microtome, and then H&E staining was performed, and histopathological changes were observed.

[8] = test system: diabetic nephrosis animal models; assay: Blood insulin (Mouse Insulin ELISA KIT) and HOMA-IR; details: for HOMA-IR, Mean / Insulin, Mean: after observation period, fasted
Method: as §1, §2

C[C@@H]1C[C@H]2[C@@H]3CCC4=CC(=O)C=C[C@]4(C)[C@@]3(F)[C@@H](O)C[C@]2(C)[C@@]1(O)C(=O)CO [Dexa, dexamethasone, reference compound]
CRE, Mean ([1]; 2 mg/kg/day oral): 0.1 mg/dL
GLU, Mean ([1]; 2 mg/kg/day oral): 335.6^# mg/dL
T-CHO, Mean ([1]; 2 mg/kg/day oral): 139.0 mg/dL
Body weight, Mean ([2]; 2 mg/kg/day oral, week 0): 24 g
Body weight, Mean ([2]; 2 mg/kg/day oral, week 1): 23.5 g
Body weight, Mean ([2]; 2 mg/kg/day oral, week 2): 23.6 g
Body weight, Mean ([2]; 2 mg/kg/day oral, week 3): 23.6 g
Body weight, Mean ([2]; 2 mg/kg/day oral, week 4): 23.6 g
Body weight, Mean ([2]; 2 mg/kg/day oral, week 5): 23.7 g
Body weight, Mean ([2]; 2 mg/kg/day oral, week 6): 23.6 g
Body weight, Mean ([2]; 2 mg/kg/day oral, week 7): 23.8 g
Body weight, Mean ([2]; 2 mg/kg/day oral, week 8): 23.6 g
Body weight, Mean ([2]; 2 mg/kg/day oral, week 10): 23.3 g
Indoxyl sulfate, Mean ([3]; 2 mg/kg/day oral): 2.5^# μg/mL
Drinking water intake, Mean ([4]; 2 mg/kg/day oral, week 0): 7.07
Drinking water intake, Mean ([4]; 2 mg/kg/day oral, week 1): 7.73
Drinking water intake, Mean ([4]; 2 mg/kg/day oral, week 2): 7.06
Drinking water intake, Mean ([4]; 2 mg/kg/day oral, week 3): 7.69
Drinking water intake, Mean ([4]; 2 mg/kg/day oral, week 4): 7.69
Drinking water intake, Mean ([4]; 2 mg/kg/day oral, week 5): 7.10
Drinking water intake, Mean ([4]; 2 mg/kg/day oral, week 6): 7.35
Drinking water intake, Mean ([4]; 2 mg/kg/day oral, week 7): 7.19
Drinking water intake, Mean ([4]; 2 mg/kg/day oral, week 8): 7.83
Drinking water intake, Mean ([4]; 2 mg/kg/day oral, week 9): 7.45
Drinking water intake, Mean ([4]; 2 mg/kg/day oral, week 10): 7.19
Feed intake, Mean ([5]; 2 mg/kg/day oral, week 0): 6.71
Feed intake, Mean ([5]; 2 mg/kg/day oral, week 1): 5.48
Feed intake, Mean ([5]; 2 mg/kg/day oral, week 2): 5.80
Feed intake, Mean ([5]; 2 mg/kg/day oral, week 3): 5.84
Feed intake, Mean ([5]; 2 mg/kg/day oral, week 4): 5.89
Feed intake, Mean ([5]; 2 mg/kg/day oral, week 5): 5.65
Feed intake, Mean ([5]; 2 mg/kg/day oral, week 6): 5.30
Feed intake, Mean ([5]; 2 mg/kg/day oral, week 7): 5.56
Feed intake, Mean ([5]; 2 mg/kg/day oral, week 8): 5.21
Feed intake, Mean ([5]; 2 mg/kg/day oral, week 9): 5.29
Feed intake, Mean ([5]; 2 mg/kg/day oral, week 10): 5.64
Blood glucose level, Mean ([6]; 2 mg/kg/day oral, week 0, 4 h fasting, in mg/dL (unit assumed)): 307.1
Blood glucose level, Mean ([6]; 2 mg/kg/day oral, week 2, 4 h fasting, in mg/dL (unit assumed)): 309.1
Blood glucose level, Mean ([6]; 2 mg/kg/day oral, week 4, 4 h fasting, in mg/dL (unit assumed)): 329.2
Blood glucose level, Mean ([6]; 2 mg/kg/day oral, week 6, 4 h fasting, in mg/dL (unit assumed)): 336.9
Blood glucose level, Mean ([6]; 2 mg/kg/day oral, week 8, 4 h fasting): 286.1^#
Blood glucose level, Mean ([6]; 2 mg/kg/day oral, week 10, 4 h fasting, in mg/dL (unit assumed)): 331.4
Kidney: Medullar apoptosis ([7]; G3, 2 mg/kg oral): 1
Kidney: Medullar mineralization ([7]; G3, 2 mg/kg oral): 1
Kidney: NHL ([7]; G3, 2 mg/kg oral): 6
Kidney: bowman's capsule hyperplasia ([7]; G3, 2 mg/kg oral): 2
Kidney: pappillary mineralization ([7]; G3, 2 mg/kg oral): 0
Liver: Apoptosis ([7]; G3, 2 mg/kg oral): 4
Liver: Cytoplasmic glycogen ([7]; G3, 2 mg/kg oral): 0
Liver: Eosinophlic focus of cellular alteration ([7]; G3, 2 mg/kg oral): 3
Liver: Mononuclear cell infiltrate ([7]; G3, 2 mg/kg oral): 0
Liver: NHL ([7]; G3, 2 mg/kg oral): 5
Pancrease: Apoptosis ([7]; G3, 2 mg/kg oral): 0
Pancrease: NHL ([7]; G3, 2 mg/kg oral): 8
Pancrease: islet degeneration ([7]; G3, 2 mg/kg oral): 1
Pancrease: islet hypertrophy ([7]; G3, 2 mg/kg oral): 0
Pancrease: islet, mononuclear cell infillitrate ([7]; G3, 2 mg/kg oral): 1
HOMA-IR, Mean ([8]; 2 mg/kg/day oral): 11.2^#
Insulin, Mean ([8]; 2 mg/kg/day oral): 0.6 ng/mL

O=C(O)c1cc(=O)c2c(OCC(O)COc3cccc4oc(C(=O)O)cc(=O)c34)cccc2o1 [OC-101, cromolyn, reference compound]
GLU compared to disease control group ([1]; 50 mg/kg administered group): decreased statistically significantly
CRE, Mean ([1]; 50 mg/kg/day oral): 0.1 mg/dL
GLU, Mean ([1]; 50 mg/kg/day oral): 282.6^# mg/dL
T-CHO, Mean ([1]; 50 mg/kg/day oral): 139.3 mg/dL
Body weight, Mean ([2]; 50 mg/kg/day oral, week 0): 23.9 g
Body weight, Mean ([2]; 50 mg/kg/day oral, week 1): 23.4 g
Body weight, Mean ([2]; 50 mg/kg/day oral, week 2): 23.5 g
Body weight, Mean ([2]; 50 mg/kg/day oral, week 3): 23.3 g
Body weight, Mean ([2]; 50 mg/kg/day oral, week 4): 23.5 g
Body weight, Mean ([2]; 50 mg/kg/day oral, week 5): 23.4 g
Body weight, Mean ([2]; 50 mg/kg/day oral, week 6): 23.5 g
Body weight, Mean ([2]; 50 mg/kg/day oral, week 7): 23.4 g
Body weight, Mean ([2]; 50 mg/kg/day oral, week 8): 23.2 g
Body weight, Mean ([2]; 50 mg/kg/day oral, week 10): 23 g
Indoxyl sulfate, Mean ([3]; 50 mg/kg/day oral): 2.0 µg/mL
Drinking water intake, Mean ([4]; 50 mg/kg/day oral, week 0): 6.78
Drinking water intake, Mean ([4]; 50 mg/kg/day oral, week 1): 8.11
Drinking water intake, Mean ([4]; 50 mg/kg/day oral, week 2): 7.68
Drinking water intake, Mean ([4]; 50 mg/kg/day oral, week 3): 6.99
Drinking water intake, Mean ([4]; 50 mg/kg/day oral, week 4): 7.23
Drinking water intake, Mean ([4]; 50 mg/kg/day oral, week 5): 6.78
Drinking water intake, Mean ([4]; 50 mg/kg/day oral, week 6): 7.80
Drinking water intake, Mean ([4]; 50 mg/kg/day oral, week 7): 7.06
Drinking water intake, Mean ([4]; 50 mg/kg/day oral, week 8): 7.17
Drinking water intake, Mean ([4]; 50 mg/kg/day oral, week 9): 7.09
Drinking water intake, Mean ([4]; 50 mg/kg/day oral, week 10): 6.76
Feed intake, Mean ([5]; 50 mg/kg/day oral, week 0): 6.23
Feed intake, Mean ([5]; 50 mg/kg/day oral, week 1): 5.98
Feed intake, Mean ([5]; 50 mg/kg/day oral, week 2): 6.35
Feed intake, Mean ([5]; 50 mg/kg/day oral, week 3): 5.47
Feed intake, Mean ([5]; 50 mg/kg/day oral, week 4): 4.28
Feed intake, Mean ([5]; 50 mg/kg/day oral, week 5): 4.51
Feed intake, Mean ([5]; 50 mg/kg/day oral, week 6): 4.29
Feed intake, Mean ([5]; 50 mg/kg/day oral, week 7): 4.41
Feed intake, Mean ([5]; 50 mg/kg/day oral, week 8): 4.37
Feed intake, Mean ([5]; 50 mg/kg/day oral, week 9): 4.51
Feed intake, Mean ([5]; 50 mg/kg/day oral, week 10): 4.28
Blood glucose level, Mean ([6]; 50 mg/kg/day oral, week 0, 4 h fasting, in mg/dL (unit assumed)): 300.9
Blood glucose level, Mean ([6]; 50 mg/kg/day oral, week 2, 4 h fasting, in mg/dL (unit assumed)): 336.6
Blood glucose level, Mean ([6]; 50 mg/kg/day oral, week 4, 4 h fasting): 271.1^#
Blood glucose level, Mean ([6]; 50 mg/kg/day oral, week 6, 4 h fasting): 295.5^#
Blood glucose level, Mean ([6]; 50 mg/kg/day oral, week 8, 4 h fasting): 259.9^#
Blood glucose level, Mean ([6]; 50 mg/kg/day oral, week 10, 4 h fasting): 247.8^#
Kidney: Medullar apoptosis ([7]; G6/G7, 50 mg/kg oral): 0
Kidney: Medullar mineralization ([7]; G6/G7, 50 mg/kg oral): 1
Kidney: NHL ([7]; G6/G7, 50 mg/kg oral): 8
Kidney: bowman's capsule hyperplasia ([7]; G6/G7, 50 mg/kg oral): 1
Kidney: pappillary mineralization ([7]; G6/G7, 50 mg/kg oral): 0
Liver: Apoptosis ([7]; G6/G7, 50 mg/kg oral): 2
Liver: Cytoplasmic glycogen ([7]; G6/G7, 50 mg/kg oral): 0
Liver: Eosinophlic focus of cellular alteration ([7]; G6/G7, 50 mg/kg oral): 1
Liver: Mononuclear cell infiltrate ([7]; G6/G7, 50 mg/kg oral): 3
Liver: NHL ([7]; G6/G7, 50 mg/kg oral): 5
Pancrease: Apoptosis ([7]; G6/G7, 50 mg/kg oral): 0
Pancrease: NHL ([7]; G6/G7, 50 mg/kg oral): 6
Pancrease: islet degeneration ([7]; G6/G7, 50 mg/kg oral): 2
Pancrease: islet hypertrophy ([7]; G6/G7, 50 mg/kg oral): 2
Pancrease: islet, mononuclear cell infillitrate ([7]; G6/G7, 50 mg/kg oral): 1
HOMA-IR compared to disease control group ([8]; 50 mg/kg administered group): decreased statistically significantly
HOMA-IR, Mean ([8]; 50 mg/kg/day oral): 8.8^#
Insulin, Mean ([8]; 50 mg/kg/day oral): 0.5 ng/mL
